# Assay results as given in the C3SDB collision cross section collection.
# What was measured:
# [1] = instrument: DT, stepped-field
# [2] = instrument: DT, single field, calibrated with Agilent tune mix (Agilent)
Structure (SMILES),collision cross section (N2) ([1]; [M+K]+) [Å²],collision cross section (N2) ([1]; [M+Na]+) [Å²],further results
OC[C@H]1O[C@@H]2O[C@H]3[C@H](O)[C@@H](O)[C@@H](O[C@H]4[C@H](O)[C@@H](O)[C@@H](O[C@H]5[C@H](O)[C@@H](O)[C@@H](O[C@H]6[C@H](O)[C@@H](O)[C@@H](O[C@H]7[C@H](O)[C@@H](O)[C@@H](O[C@H]8[C@H](O)[C@@H](O)[C@@H](O[C@H]9[C@H](O)[C@@H](O)[C@@H](O[C@H]1[C@H](O)[C@H]2O)O[C@@H]9CO)O[C@@H]8CO)O[C@@H]7CO)O[C@@H]6CO)O[C@@H]5CO)O[C@@H]4CO)O[C@@H]3CO [Gamma-Cyclodextrin],324.8,322.1,collision cross section (N2) ([1]; [M+Cs]+): 338.2 Å²; collision cross section (N2) ([1]; [M+H]+): 322.6 Å²; collision cross section (N2) ([1]; [M+Li]+): 317.7 Å²; collision cross section (N2) ([1]; [M+Rb]+): 327.3 Å²
CCCCCCCCCCCCC=CC[C@@H](O)[C@H](CO[C@@H]1O[C@H](CO)[C@@H](O)C(O)C1O)NC(=O)CCCCCCCCCCCCCCC (some centres not stated) [GlcCer(34:1)],–,277.3,–
CCCCCCCCCCCCC=CC[C@@H](O)[C@H](CO[C@@H]1O[C@H](CO)[C@@H](O)C(O)C1O)NC(=O)CC=CCCCCCCCCCCCCCCCC (some centres not stated) [GlcCer(38:2)],–,291.4,–
CCCCCCCCCCCCCCCCCCCCCC(=O)N[C@@H](CO[C@@H]1O[C@H](CO)[C@@H](O)C(O)C1O)[C@H](O)CCCCCCCCCCCCCCC (some centres not stated) [GlcCer(40:0)],–,302.3,–
CCCCCCCCCCCCC=CC[C@@H](O)[C@H](CO[C@@H]1O[C@H](CO)[C@@H](O)C(O)C1O)NC(=O)CC=CCCCCCCCCCCCCCCCCCCC (some centres not stated) [GlcCer(41:2)],–,299.6,–
CCCCCCCCCCCCC=CC[C@@H](O)[C@H](CO[C@@H]1O[C@H](CO)[C@@H](O)C(O)C1O)NC(=O)CC=CCC=CCCCCCCCCCCCCCCCCC (some centres not stated) [GlcCer(42:3)],–,302.3,–
CCCCCCCCCCCCC=CC[C@@H](O)[C@H](CO[C@@H]1O[C@H](CO)[C@@H](O)C(O)C1O)NC(=O)CC=CCC=CCCCCCCCCCCCCCCCCCC (some centres not stated) [GlcCer(43:3)],–,306.1,–
CC(=O)NC1C(OC2C(O)C(CO)OC(OC(C(O)CO)C(O)C(O)C=O)C2O)OC(CO)C(O)C1O (configuration not stated) [HexNAc-(Hex)2],–,220,collision cross section (N2) ([1]; [M+Na-H2O]+): 216.3 Å²
CC(=O)NC1C(O)OC(CO)C(O)C1OC1OC(CO)C(O)C(O)C1O (configuration not stated) [HexNAc-Hex],191.1,190.2,collision cross section (N2) ([1]; [M+Na-H2O]+): 184.3 Å²
OC[C@H]1O[C@H](O[C@H]2[C@H](O)[C@@H](O)[C@@H](O[C@H]3[C@H](O)[C@@H](O)[C@@H](O[C@H]4[C@H](O)[C@@H](O)[C@@H](O[C@H]5[C@H](O)[C@@H](O)[C@@H](O[C@H]6[C@H](O)[C@@H](O)[C@@H](O[C@H]7[C@H](O)[C@@H](O)[C@@H](O)O[C@@H]7CO)O[C@@H]6CO)O[C@@H]5CO)O[C@@H]4CO)O[C@@H]3CO)O[C@@H]2CO)[C@H](O)[C@@H](O)[C@@H]1O [Maltoheptaose],303.4,303.1,collision cross section (N2) ([1]; [M+H]+): 303.3 Å²
OC[C@H]1O[C@H](O[C@H]2[C@H](O)[C@@H](O)[C@@H](O[C@H]3[C@H](O)[C@@H](O)[C@@H](O[C@H]4[C@H](O)[C@@H](O)C(O)O[C@@H]4CO)O[C@@H]3CO)O[C@@H]2CO)[C@H](O)[C@@H](O)[C@@H]1O (some centres not stated) [Maltotetraose],–,235.3,collision cross section (N2) ([1]; [M+H]+): 238.3 Å²
OC[C@H]1O[C@H](O[C@H]2[C@H](O)[C@@H](O)[C@@H](O[C@H]3[C@H](O)[C@@H](O)[C@@H](O)O[C@@H]3CO)O[C@@H]2CO)[C@H](O)[C@@H](O)[C@@H]1O [Maltotriose],216.8,212.8,collision cross section (N2) ([1]; [M+H]+): 216.3 Å²
CC/C=C\C/C=C\C/C=C\C/C=C\C/C=C\CCCC(=O)O[C@H](COC(=O)CCCC/C=C\C/C=C\C/C=C\C/C=C\CC)COP(=O)([O-])OCC[N+](C)(C)C [PC(38:9)],–,297.8,–
CCC=CCC=CCC=CCC=CCC=CCC=CCC(=O)OC[C@H](COP(=O)(O)OCC[N+](C)(C)C)OC(=O)CC=CCC=CCC=CCC=CCC=CCC=CCC [PC(42:12)],–,303.9,–
CCCCC=CCC=CCC=CCC(=O)OC[C@H](COP(=O)(O)OCCN)OC(=O)CC=CCC=CCC=CCCCC [PE(28:6)],248.7,–,–
CCCCCCCCC/C=C\CCCCCCCC(=O)O[C@H](COC(=O)CCCCCCCCCCCC)COP(=O)(O)OCCN [PE(32:1)],–,274.1,collision cross section (N2) ([2]; [M+H]+): 267.2 Å²; collision cross section (N2) ([2]; [M+Na]+): 272 Å²; collision cross section (N2) ([2]; [M-H]-): 256.6 Å²
